# Assay results as given in publication PMC9403976, “Elucidating the path to Plasmodium prolyl-tRNA synthetase inhibitors that overcome halofuginone resistance” (Nature Communications, 2022).
# Values joined by “and” are separate entries in the source; they are usually repeats but may differ in a detail not shown here. Identical values can stand only once. Like-named read-outs stand apart in the source and are kept apart here.
# Legend:
# P. falciparum Dd2-2D4 = experiment: P. falciparum asexual blood stage (ABS) growth assay, SYBR Green, 72 h, wild-type parasites; type: cell-based, Plasmodium falciparum; conditions: Dd2-2D4; independent experiments
# [1] = system: P. falciparum Dd2-2D4 NCP26 selections S1-3; experiment: ABS growth assay on bulk populations and clones from NCP26 resistance selections S1-3; type: cell-based, Plasmodium falciparum; conditions: independent experiments
# Experimental: In short, P. falciparum erythrocytic-stage parasites at 1% parasitemia and 1% hematocrit in RPMI + 0.5% Albumax were seeded at 40 μL/well in 384-well plates with test compounds in triplicate, dose-response format with 10 μM dihydroartemisinin as a kill-control and blank (no compound) wells as a growth-control. […] After 72 h, growth was quantified by measuring fluorescence (Molecular Devices SpectraMax iD5) following SYBR Green 1 staining. Data were analyzed in Excel and plotted in PRISM (V. 8.4.3–9.1.0, GraphPad).
# This cycle was repeated for ~50 generations (~100 days), corresponding to 5–6 cycles of drug pressure.
# Clonal parasites were isolated from each selection flask by limiting dilution of ring stage parasites in 96-well plates to an average of 0.8 and 0.2 parasites per well.
# HT-PfcProRS [2] = molecular target: T1, HT-PfcProRS (Plasmodium falciparum, UniProt Q8I5R7)
# T1 sequence (Q8I5R7 249-746): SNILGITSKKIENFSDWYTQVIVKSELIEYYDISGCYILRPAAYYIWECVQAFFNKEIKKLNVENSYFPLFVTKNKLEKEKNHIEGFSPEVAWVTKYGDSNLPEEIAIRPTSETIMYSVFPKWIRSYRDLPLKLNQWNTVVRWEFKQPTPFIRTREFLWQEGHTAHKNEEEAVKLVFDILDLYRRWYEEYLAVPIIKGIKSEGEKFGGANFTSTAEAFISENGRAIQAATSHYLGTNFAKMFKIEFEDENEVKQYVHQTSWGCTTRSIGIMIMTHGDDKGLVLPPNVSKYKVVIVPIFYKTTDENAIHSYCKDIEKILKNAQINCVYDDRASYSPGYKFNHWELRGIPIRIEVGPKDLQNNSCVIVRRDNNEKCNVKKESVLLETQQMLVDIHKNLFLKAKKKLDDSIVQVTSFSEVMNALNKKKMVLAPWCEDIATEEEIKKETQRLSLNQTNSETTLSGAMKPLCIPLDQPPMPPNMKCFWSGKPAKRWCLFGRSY
# Experimental: (§1) A Multidrop Combi Reagent Dispenser (Thermo Fisher Scientific) was used to dispense 20 μL of 2× protein solution into each well. […] Plates were mixed on an Ika MTS 2/4 Digital Microtiter Shaker at 750 rpm for 2 min, centrifuged at 1000 × g at 25 °C for 1 min, and allowed to equilibrate for 2 h at room temperature before TR-FRET measurements were taken.
# (§2) PRISM (V. 8.4.3–9.1.0, GraphPad) was used to perform non-linear regression analysis (log(inhibitor) vs. response–Variable slope (four parameters)), plot dose-response curves, and calculate IC50 values. The Cheng–Prusoff equation was used to convert IC50 to KD values (Eq. (4)):4 KD=IC50/1+[MAT379]/KD,MAT379
# HT-HsProRS [3] = molecular target: T2, HT-HsProRS (Homo sapiens, UniProt P07814); experiment: biochemical
# T2 sequence (P07814 996-1512): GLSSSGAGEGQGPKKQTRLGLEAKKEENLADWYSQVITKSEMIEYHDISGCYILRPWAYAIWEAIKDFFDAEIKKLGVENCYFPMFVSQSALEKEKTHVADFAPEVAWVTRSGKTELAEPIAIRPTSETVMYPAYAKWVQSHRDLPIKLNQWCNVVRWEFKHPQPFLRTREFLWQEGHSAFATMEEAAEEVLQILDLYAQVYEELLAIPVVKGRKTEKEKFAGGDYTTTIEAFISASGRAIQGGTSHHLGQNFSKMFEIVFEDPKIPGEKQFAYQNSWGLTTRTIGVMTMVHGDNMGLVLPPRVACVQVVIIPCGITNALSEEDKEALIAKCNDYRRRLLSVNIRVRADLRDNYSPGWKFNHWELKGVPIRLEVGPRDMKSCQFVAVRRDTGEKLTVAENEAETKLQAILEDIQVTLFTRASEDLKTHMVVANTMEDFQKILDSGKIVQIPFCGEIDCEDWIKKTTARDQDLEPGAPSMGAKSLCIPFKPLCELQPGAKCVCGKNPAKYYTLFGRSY
# Experimental: as §1, §2
# HT-HsProRS [4] = molecular target: T2, HT-HsProRS; conditions: replicates 1-4
# Experimental: as §1, §2
# HsProRS = HsProRS (Homo sapiens, UniProt P07814); conditions: ref Heacock et al.; cited from earlier work
# HT-PfcProRS [5] = molecular target: T1, HT-PfcProRS; experiment: biochemical
# Experimental: as §1, §2
structure (smiles),measurement,setting,value
C[C@H]1[C@@H](O)O[C@@H]2O[C@@]3(C)CC[C@H]4[C@H](C)CC[C@@H]1[C@@]24OO3 [Dihydroartemesinin (DHA)],Fold-change Resistance,P. falciparum Dd2-2D4,0.78 and 1.22 and 1
same,Fold-change Resistance,[1]; S1 - Clone A8,0.68 and 0.97
same,Fold-change Resistance,[1]; S2 - Clone B9,2.04
same,Fold-change Resistance,[1]; S3 - Clone B3,0.71 and 0.6
O=C(O)[C@@H]1CCCN1 [proline],fold lower affinity for PfcProRS than MAT379,HT-PfcProRS [2],"~ 4,500 fold"
same,Kd,"HT-HsProRS [3]; HsProRS (KD [nM]) mean, substrates, substrate KD, (-)",30600 nM
same,Kd,"HT-HsProRS [3]; KD of substrate, […] HT-HsProRS, 1000 nM MAT379",67100 nM
same,Proline - […] HT-HsProRS - 1000nM MAT379,HT-HsProRS [4]; Log[Substrate] (M) -1.000,5.08E-02 and 1.93E-02 and 4.05E-02 and 1.78E-02
same,Proline - […] HT-HsProRS - 1000nM MAT379,HT-HsProRS [4]; Log[Substrate] (M) -1.301,6.44E-02 and 4.43E-02 and 5.23E-02 and 4.24E-02
same,Proline - […] HT-HsProRS - 1000nM MAT379,HT-HsProRS [4]; Log[Substrate] (M) -1.602,7.04E-02 and 4.04E-02 and 8.19E-02 and 3.22E-02
same,Proline - […] HT-HsProRS - 1000nM MAT379,HT-HsProRS [4]; Log[Substrate] (M) -1.903,1.06E-01 and 8.64E-02 and 1.07E-01 and 6.69E-02
same,Proline - […] HT-HsProRS - 1000nM MAT379,HT-HsProRS [4]; Log[Substrate] (M) -2.204,7.48E-02 and 1.05E-01 and 9.62E-02 and 1.28E-01
same,Proline - […] HT-HsProRS - 1000nM MAT379,HT-HsProRS [4]; Log[Substrate] (M) -2.505,7.61E-02 and 5.21E-02 and 2.93E-02 and 5.48E-02
same,Proline - […] HT-HsProRS - 1000nM MAT379,HT-HsProRS [4]; Log[Substrate] (M) -2.806,2.57E-02 and 8.53E-02 and 3.59E-02 and 4.74E-02
same,Proline - […] HT-HsProRS - 1000nM MAT379,HT-HsProRS [4]; Log[Substrate] (M) -3.107,9.60E-02 and 9.41E-02 and 9.82E-02 and 9.09E-02
same,Proline - […] HT-HsProRS - 1000nM MAT379,HT-HsProRS [4]; Log[Substrate] (M) -3.408,8.87E-02 and 1.50E-01 and 1.08E-01 and 8.19E-02
same,Proline - […] HT-HsProRS - 1000nM MAT379,HT-HsProRS [4]; Log[Substrate] (M) -3.709,1.42E-01 and 1.36E-01 and 1.15E-01 and 1.26E-01
same,Proline - […] HT-HsProRS - 1000nM MAT379,HT-HsProRS [4]; Log[Substrate] (M) -4.010,2.43E-01 and 1.82E-01 and 1.50E-01 and 1.67E-01
same,Proline - […] HT-HsProRS - 1000nM MAT379,HT-HsProRS [4]; Log[Substrate] (M) -4.311,2.57E-01 and 2.23E-01 and 2.59E-01 and 1.99E-01
same,Proline - […] HT-HsProRS - 1000nM MAT379,HT-HsProRS [4]; Log[Substrate] (M) -4.612,2.84E-01 and 3.36E-01 and 2.90E-01 and 3.09E-01
same,Proline - […] HT-HsProRS - 1000nM MAT379,HT-HsProRS [4]; Log[Substrate] (M) -4.913,3.43E-01 and 3.30E-01 and 3.37E-01 and 3.11E-01
same,Proline - […] HT-HsProRS - 1000nM MAT379,HT-HsProRS [4]; Log[Substrate] (M) -5.214,3.51E-01 and 3.56E-01 and 3.15E-01 and 3.55E-01
same,Proline - […] HT-HsProRS - 1000nM MAT379,HT-HsProRS [4]; Log[Substrate] (M) -5.515,4.26E-01 and 4.08E-01 and 4.22E-01 and 4.16E-01
same,Proline - […] HT-HsProRS - 1000nM MAT379,HT-HsProRS [4]; Log[Substrate] (M) -5.816,4.12E-01 and 3.85E-01 and 3.49E-01 and 3.26E-01
same,Proline - […] HT-HsProRS - 1000nM MAT379,HT-HsProRS [4]; Log[Substrate] (M) -6.118,4.73E-01 and 4.43E-01 and 3.95E-01 and 3.89E-01
same,Km,HsProRS,180 µM
same,Kd,HT-PfcProRS [5],457 µM
